Experimental data reported in US5616684A, “Cyclic peptides and use thereof” (priority 1991, dated 1997).
Non-standard residues stand in square brackets, D forms with d. Residues, ends and D or L forms follow the SMILES beside them. 1Nal = N[C@@H](Cc1cccc2ccccc12)C(=O)O; d(aIle) = CC[C@H](C)[C@@H](N)C(=O)O; Hyp = O=C(O)[C@@H]1C[C@@H](O)CN1; Pip = O=C(O)[C@@H]1CCCCN1; Aze = O=C(O)[C@@H]1CCN1

Key:
[1] = biological target: T1, endothelin receptor A (ETA) (Sus scrofa, UniProt Q29010); experiment: Assay of Affinity for Receptor (1): Binding Activity on ETA Receptor; design: key to Binding Activity on ET Receptor (R. act.) ETA: relative binding activity; reference cyclic pentapeptide = 1.0; conditions: porcine heart membrane fraction; for Binding Activity on ET Receptor (R. act.) ETA: specific activity, binding activity of cyclo[-D-Glu-Ala-D-aIle-Leu-D-Trp-] taken as 1.0, 125I-labeled endothelin-1, 25° C., 1 hour
T1 construct: A membrane fraction prepared from the porcine heart; from tissue; host or cells: porcine heart membrane fraction
T1 sequence (Q29010 21-427): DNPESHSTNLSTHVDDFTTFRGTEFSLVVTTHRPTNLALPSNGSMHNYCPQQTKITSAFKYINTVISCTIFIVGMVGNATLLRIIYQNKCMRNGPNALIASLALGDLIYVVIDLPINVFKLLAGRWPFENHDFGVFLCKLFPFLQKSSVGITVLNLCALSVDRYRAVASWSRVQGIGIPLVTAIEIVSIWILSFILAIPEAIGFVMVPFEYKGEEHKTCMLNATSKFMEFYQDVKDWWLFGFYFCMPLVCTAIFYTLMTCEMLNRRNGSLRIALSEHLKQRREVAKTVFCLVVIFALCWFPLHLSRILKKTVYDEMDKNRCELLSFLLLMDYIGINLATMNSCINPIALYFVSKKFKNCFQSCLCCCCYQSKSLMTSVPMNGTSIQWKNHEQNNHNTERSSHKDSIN
Description: Assay of Affinity for Receptor (1) . . . Binding Activity on ETA Receptor
A membrane fraction prepared from the porcine heart was diluted to 0.15 mg/ml by using a buffer solution for assay, and 100 μl of the resulting suspension of the membrane fraction was poured into each assay tube to use for assay. To this suspension of the membrane fraction was added 2 μl of 5 nM ^125 I-labeled endothelin-1 solution. Further, 3 μl of a test peptide solution was added thereto, followed by incubation at a temperature of 25° C. for 1 hour. Then, the resulting suspension was diluted with 900 μl of the buffer solution for assay cooled with ice, and thereafter separated into a supernatant and a precipitate by centrifugation at 12,000×g for 10 minutes. Cell membranes and an endothelin receptor A (ETA) embedded therein were contained in the precipitate, and radioactive iodine-labeled endothelin combined with the receptor was also recovered in the precipitate. Accordingly, the amount of radioactive iodine-labeled endothelin combined with the endothelin receptor A (ETA) was determined by measuring the amount of radioactive iodine contained in the precipitate with a gamma-ray counter. The cyclic pentapeptide described in Japanese Patent Application No. 2-413828/1990, cyclo[-D-Glu-Ala-D-aIle-Leu-D-Trp-], was used as a control compound. The numerical value of ETA shown in Table 1 is the value of specific activity, taking the binding activity of this cyclic pentapeptide on the receptor A as 1.0. The binding activity (IC50) of this cyclic pentapeptide on the ETA receptor is 2×10^-6 M.

[2] = tested on: ETB receptor (guinea pig kidney crude receptor membrane fraction); experiment: ETB Radio Receptor Assay *2; format: binding; conditions: relative activity (Example 8 given as 100), 125I-endothelin-1, 37° C., 90 minutes
Description: ETB Radio Receptor Assay *2
In the endothelin radio receptor assay, guinea pigs' kidneys were used. Guinea pigs (Std Hartrey, male 250 g, Japan SLC Ltd.) were made to have a cerebral concussion and sacrificed by bleeding from carotid arteries to pick up the kidneys and removed fat therefrom to prepare the kidneys. The obtained kidneys were sliced and homogenized by politron homogenizer in 20 ml of 50 mM Tris-HCl buffer [pH 7.4; 20 mM NaHCO3, 0.1 mM PMSF (Phenylmethylsulfonyl Fluoride), 1 mM EDTA (Ethylenediaminetetraacetic acid)] per one kidney. The homogenized kidney was applied to a centrifugation at 1,000×g for 15 minutes and the supernatant was further applied to a centrifugation for 20 minutes at 30,000×g. The resulting precipitate was twice washed with 50 mM Tris-HCl buffer (pH 7.4) containing 0.1 mM PMSF, 1 mM EDTA. The resultant was stored at -80 ° C. as a crude receptor membrane fraction and was used as the suspension in the following buffer when necessary.
740 Bq of ^125 I-endothelin-1 (81.4 TBq/mmol, Du Pont, USA) as a radio ligand, the crude membrane fraction (2.1 μg protein) and samples were added to the following buffer. The reaction was performed at 37° C., for 90 minutes in 0.2 ml of the buffer [50 mM Tris-HCl buffer (pH 7.4) containing 0.1 mM PMSF, 1 mM EDTA, 0.2% bovine serum albumin].
The reaction was stopped by fast filtration on a glass filter (GF/B, Wattman, USA) by Cell Harvestor (290 PHD, Cambridge-Technology, Great Britain), and the filter was three times washed with 50 mM Tris-HCl buffer (pH 7.4). Radio activity remained on the filter was assayed by a gamma counter.

[3] = biological target: T2, endothelin receptor B (ETB) (Bos taurus, UniProt P28088); experiment: Assay of Affinity for Receptor (2): Binding Activity on ETB Receptor *1; design: key: relative specific activity, Example 8 compound = 100; conditions: specific activity, binding activity of the compound of Example 8 taken as 100; bovine brain membrane fraction, 125I labeled endothelin-1, 25° C., 1 hour
T2 construct: A membrane fraction prepared from the bovine brain; from tissue; host or cells: bovine brain membrane fraction
T2 sequence (P28088 27-441): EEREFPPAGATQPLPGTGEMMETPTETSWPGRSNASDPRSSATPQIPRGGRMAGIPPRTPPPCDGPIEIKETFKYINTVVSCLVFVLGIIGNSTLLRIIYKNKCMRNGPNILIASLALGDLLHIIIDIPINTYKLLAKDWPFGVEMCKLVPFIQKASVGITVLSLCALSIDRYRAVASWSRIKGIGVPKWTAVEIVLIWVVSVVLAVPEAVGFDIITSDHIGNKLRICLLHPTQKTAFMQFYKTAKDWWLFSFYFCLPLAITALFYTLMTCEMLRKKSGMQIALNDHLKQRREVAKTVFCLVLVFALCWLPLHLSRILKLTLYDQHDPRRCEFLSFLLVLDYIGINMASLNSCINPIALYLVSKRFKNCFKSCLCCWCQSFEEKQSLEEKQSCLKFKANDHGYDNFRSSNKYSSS
Description: Assay of Affinity for Receptor (2) . . . Binding Activity on ETB Receptor *1
A membrane fraction prepared from the bovine brain was diluted to 0.15 mg/ml by using a buffer solution for assay, and 100 μl of the resulting suspension of the membrane fraction was poured into each assay tube to use for assay. To this suspension of the membrane fraction was added 2 μl of 5 nM ^125 I labeled endothelin-1 solution. Further, 3 μl of a test peptide solution was added thereto, followed by incubation at a temperature of 25° C. for 1 hour. Then, the resulting suspension was diluted with 900 μl of the buffer solution for assay cooled with ice, and thereafter separated into a supernatant and a precipitate by centrifugation at 12,000×g for 10 minutes. Cell membranes and an endothelin receptor B (ETB) embedded therein were contained in the precipitate, and radioactive iodine-labeled endothelin bound to the receptor was also recovered in the precipitate. Accordingly, the amount of radioactive iodine-labeled endothelin bound to the endothelin receptor B (ETB) was determined by measuring the amount of radioactive iodine contained in the precipitate with a gamma-ray counter. The numerical value of ETB shown in Table 1 is the value of specific activity, taking the binding activity of the compound of Example 8 on the receptor B as 100.

| SMILES | Binding Activity on ET Receptor (R. act.) ETA [1] | Binding Activity on ET Receptor (R. act.) ET8 *2 [2] | Binding Activity on ET Receptor (R. act.) ET8 *1 [3] | IC50 ([1]; 125I-labeled endothelin-1) [nM] |
| --- | --- | --- | --- | --- |
| CC(C)C[C@@H]1NC(=O)[C@@H](CC(C)C)NC(=O)[C@H](CC(=O)O)NC(=O)[C@H](Cc2c[nH]c3ccccc23)NC(=O)[C@@H](CC(=O)O)NC(=O)[C@@H](Cc2c[nH]c3ccccc23)NC1=O [Example 8, cyclo[-D-Asp-Trp-Asp-D-Leu-Leu-D-Trp-]] (cyclo(D[dL]L[dW][dD]W)) | 76 | 100 | 100 |  |
| CC(C)C[C@@H]1NC(=O)[C@@H](CC(C)C)NC(=O)[C@H](CC(=O)O)NC(=O)[C@@H]2CCCN2C(=O)[C@@H](CC(=O)O)NC(=O)[C@@H](Cc2c[nH]c3ccccc23)NC1=O [Example 9, cyclo[-D-Asp-Pro-Asp-D-Leu-Leu-D-Trp-]] (cyclo(D[dL]L[dW][dD]P)) | 56 | 67 | 140 |  |
| CC(C)C[C@@H]1NC(=O)[C@@H](CC(C)C)NC(=O)[C@H](CC(=O)O)NC(=O)[C@@H]2C[C@@H](O)CN2C(=O)[C@@H](CC(=O)O)NC(=O)[C@@H](Cc2c[nH]c3ccccc23)NC1=O [Example 14, cyclo[-D-Asp-Hyp-Asp-D-Leu-Leu-D-Trp-]] (cyclo(D[dL]L[dW][dD][Hyp])) | 70 | 120 | 160 |  |
| CC(C)C[C@@H]1NC(=O)[C@@H](CC(C)C)NC(=O)[C@H](CC(=O)O)NC(=O)[C@H](CC(=O)O)NC(=O)[C@@H](CC(=O)O)NC(=O)[C@@H](Cc2c[nH]c3ccccc23)NC1=O [Example 16, Cyclo[--D--Asp--Asp--Asp--D--Leu--Leu--D--Trp--]] (cyclo(DD[dL]L[dW][dD])) | 10 | 34 | 14 |  |
| CC(C)C[C@@H]1NC(=O)[C@@H](CC(C)C)NC(=O)[C@H](CC(=O)O)NC(=O)[C@H](Cc2cccc3ccccc23)NC(=O)[C@@H](CC(=O)O)NC(=O)[C@@H](Cc2c[nH]c3ccccc23)NC1=O [Example 23, Cyclo[--D--Asp--Nal(1)--Asp--D--Leu--Leu--D--Trp--]] (cyclo([1Nal]D[dL]L[dW][dD])) | 8.3 | 7.7 | 11 |  |
| CC(C)C[C@@H]1NC(=O)[C@@H](CC(C)C)NC(=O)[C@H](CC(=O)O)NC(=O)[C@@H]2CCN2C(=O)[C@@H](CC(=O)O)NC(=O)[C@@H](Cc2c[nH]c3ccccc23)NC1=O [Example 25, Cyclo[--D--Asp--Azc--Asp--D--Leu--Leu--D--Trp--]] (cyclo([Aze]D[dL]L[dW][dD])) | 30 | 57 | 25 |  |
| CC(C)C[C@@H]1NC(=O)[C@@H](CC(C)C)NC(=O)[C@H](CC(=O)O)NC(=O)[C@@H]2CCCCN2C(=O)[C@@H](CC(=O)O)NC(=O)[C@@H](Cc2c[nH]c3ccccc23)NC1=O [Example 26, Cyclo[--D--Asp--Pip--Asp--D--Leu--Leu--D--Trp--]] (cyclo(D[dL]L[dW][dD][Pip])) | 25 | 73 | 38 |  |
| CC(C)C[C@@H]1NC(=O)[C@@H](CC(C)C)NC(=O)[C@H](CCC(=O)O)NC(=O)[C@H](Cc2c[nH]c3ccccc23)NC(=O)[C@@H](CC(=O)O)NC(=O)[C@@H](Cc2c[nH]c3ccccc23)NC1=O [Example 34, Cyclo[--D--Asp--Trp--Glu--D--Leu--Leu--D--Trp--]] (cyclo(E[dL]L[dW][dD]W)) | 20 | 44 | 77 |  |
| CC(C)C[C@@H]1NC(=O)[C@H](Cc2c[nH]c3ccccc23)NC(=O)[C@@H](CC(=O)O)NC(=O)[C@@H](Cc2c[nH]c3ccccc23)NC(=O)[C@H](CC(C)C)NC(=O)[C@@H](CC(C)C)NC1=O [Example 35, Cyclo[--D--Asp--Trp--Leu--D--Leu--Leu--D--Trp--]] (cyclo(L[dL]L[dW][dD]W)) | 9.1 | 24 | 52 |  |
| CC[C@H](C)[C@H]1NC(=O)[C@H](C)NC(=O)[C@@H](CCC(=O)O)NC(=O)[C@@H](Cc2c[nH]c3ccccc23)NC(=O)[C@H](CC(C)C)NC1=O [cyclo[-D-Glu-Ala-D-aIle-Leu-D-Trp-], reference compound] (cyclo(A[d(aIle)]L[dW][dE])) | 1.0 |  | less than 1 | 2000 |
